Structures can show the parent of a compound that is named as a salt.
Experiments:
CEM cells = assay: Reactive oxygen species (ROS) assay, DCFH-DA flow cytometry, glutathione depleted with diethyl maleate; type: cell-based, Human; settings: CEM cells pretreated 16 h with 1, 2.5 and 5 μM compound, then 5 mM DEM 50 min, FIG. 1; for protection against ROS production (DCF fluorescence): compared with α-tocopherol
Procedure: FIG. 1. Representative flow cytometric histograms overlay showing ROS production in CEM cells. Following pretreatment with the indicated compounds (1, 2.5 and 5 μM) for 16 h, the cells were treated with 5 mM diethyl maleate (DEM) for 50 min to deplete glutathione. The cells were washed in phosphate-buffered saline, and suspended in phosphate-buffered saline containing 20 mM glucose. Cells were loaded with 10 μM dichlorodihydrofluoresceindiacetate (DCFH-DA) for 20 min, and the green fluorescence (DCF) was measured by flow cytometry using the FL1-H channel. […] A total of 10000 events were recorded for each sample and analyzed with the CellQuest software (BD Biosciences). Increased DCF fluorescence, a measure of intracellular oxidation and ROS production, was determined by a shift in DCF fluorescence to the right on the x-axis of the FACS histogram. […] Data are expressed as the mean±SEM (n=3). α-TOH is α-tocopherol.
Cellular ROS production can be monitored using 2′,7′-dichlorodihydrofluorescein diacetate (DCFH-DA) (LeBel et al. (1992) Chem. Res. Toxicol. 5, 227-231) (Molecular Probes, Eugene, Oreg., USA), a membrane permeable and oxidant-sensitive fluorescent dye. DCFH-DA is a non-fluorescent derivative of fluorescein that emits fluorescence after being oxidized by hydrogen peroxide and other ROS. The emitted fluorescence is directly proportional to the concentration of hydrogen peroxide. DCFH-DA is nonionic and nonpolar and is easily taken up by cells. Once inside the cell, DCFH-DA is hydrolyzed by cellular esterases to non-fluorescent DCFH which traps the dye in the cell. In the presence of ROS including hydrogen peroxide, DCFH is oxidized to the highly fluorescent compound dichlorofluorescein (DCF). The intracellular DCF fluorescence is used as an index of cellular ROS production.
Cellular oxidative stress was induced by pharmacological depletion of glutathione (GSH) using the chemical diethylmaleate (DEM). ROS production was assessed by monitoring DCF fluorescence. Leukemic CEM cells (ATCC®, catalogue number CRL-2264) were cultured in RPMI (GIBCO, Grand island, NY, USA) with 10% FCS, 2 mM glutamine (HyClone, South Logan, Utah, USA) and 1% penicillin-streptomycin mix antibiotics (Cellgro, Manassas, Va., USA) supplements. CEM cells (5×10^5 cell/mL) were plated (1 mL) in 24-well plate and treated with the invention compounds (final concentration 1, 2.5, and 5 μM), and incubated at 37° C., 5% CO2 for 16 hours. The compounds tested were prepared by first making stock solutions (2.5 mM) in dimethylsulfoxide (DMSO). Cells were treated with 5 mM DEM for 50 minutes and collected by centrifugation at 300×g for 3 min and then washed twice with Hanks' Balanced Salt Solution (HSSB) buffer (Sigma, St. Louis, Mo. USA). Cells were re-suspended in HSSB buffer+20 mM glucose and incubated at 37° C. in the dark for 20 min with 10 μM DCFH-DA. Cells were collected by centrifugation at 300×g for 3 min and then washed twice with HSSB buffer. The samples were analyzed immediately by flow cytometry (Becton-Dickinson FACS Caliber), (Cell Quest software, BD Biosciences) using 488 nm excitation laser and FL1-H channel 538 nm emission filter. In each analysis, 10,000 events were recorded after cell debris were electronically gated out. Results obtained were verified by repeating experiments N=3 independent experiments. Authentic hydrogen peroxide was used as a positive control.

CEM leukemia cells = assay: Mitochondrial membrane potential (Δψm) assay, TMRM staining (FACS); type: cell-based, Human; settings: CEM cells pretreated 16 h, then 5 mM DEM 120 min, 250 nM TMRM; FIG. 3 and 4
Procedure: FIG. 3. Representative flow cytometric two-dimensional color density dot plot analyses of mitochondrial membrane potential (ΔΨm) in leukemia CEM cells stained with 250 nM TMRM and analyzed using FL2-H channel as described in the experimental section. The percentage of cells with intact ΔΨm is indicated in the top right quadrant of captions. Representative example from at least three independent experiments. A total of 10000 events were recorded for each sample and analyzed with the CellQuest software (BD Biosciences).
FIG. 4. A bar graph representation of means the percentage of cells with intact ΔΨm recorded by FACS. Data are expressed as means±SEM of three independent experiments run in duplicate.
Measurement of Mitochondrial Membrane Potential (Δψm) (FACS). For the determination of Δψm, CEM leukemia cells were pre-treated with or without the test compounds for 16 h. The cells were treated with 5 mM DEM for 120 minutes, collected by centrifugation at 300×g for 3 minutes and then washed twice with phosphate buffered saline. The cells were re-suspended in HSSB buffer and incubated at 37° C. in the dark for 15 minutes with 250 nM TMRM (a cationic dye which accumulates within mitochondria in accordance with the Δψm Nernst potential). Cells were collected by centrifugation at 300×g for 3 minutes and then washed twice with phosphate buffered saline. The samples were analyzed immediately by flow cytometry using 488 nm excitation laser and the FL2-H channel. The results obtained were verified in three independent experiments. The protonophore FCCP (10 μM) was used to dissipate the chemiosmotic proton gradient […] and served as a control for loss of Δψm. […] The results were verified by repeating the experiments in duplicate.

SMILES	intensity of DCF fluorescence (CEM cells)	protection against ROS production (DCF fluorescence) (CEM cells)	prevention of loss of Δψm (mitochondrial depolarization) (CEM leukemia cells)
CCCCCCCCCCc1nc2c(c(C)c1O)CCN2C [Compound 1b, 1,4-Dimethyl-6-decyl-2,3-dihydro-1H-pyrrolo[2,3-b]pyridin-5-ol trifluoro acetic acid salt]	significant decrease in the intensity of DCF fluorescence in a dose-dependent manner	significantly better protection than α-tocopherol	the most effective in preventing mitochondrial depolarization
CCCCCCCCCCc1nc2c(c(C)c1OC(C)=O)CCN2C [Compound 2b, 1,4-Dimethyl-6-decyl-2,3-dihydro-1H-pyrrolo[2,3-b]pyridin-5-yl acetate]	significant decrease in the intensity of DCF fluorescence in a dose-dependent manner	significantly better protection than α-tocopherol	the most effective in preventing mitochondrial depolarization
